From US20170249408A1, “Antiperspirant and Deodorant Compositions Comprising Malodor Reduction Compositions” (The Procter & Gamble Company, priority 2015, published 2017)

Assay: Blocker Index (BI), expert graders, isovaleric acid malodorous swatch
Parameters: key: Blocker Index, expert-graded scale 0 to 3 (0 = clean swatch anchor)
Excerpt: Blocker materials suitable for use in consumer products of the present invention are chosen for their ability to decrease malodor, while not interfering with perception of a fragrance. Material selection is done by assigning two indices to a test sample material from two reference scales in order to rank odor strengths. The two reference scales are the Fragrance Fidelity Index (FFI) scale and the Blocker Index (BI) scale. The FFI ranks the ability of the test sample material to impart a perceivable odor which could cause interference when combined with another fragrance and the BI ranks the ability of the test sample material to reduce malodor perception. The two methods for assigning the indices to a test sample on the FFI and the BI reference scales are given below.
The first step in the method for assigning a BI to a test sample material on the BI reference scale is to create the BI reference swatches. […] Fabric swatches for this test are white knit polycotton (4 inch×4 inch) swatches from EMC ordered as PC 50/50. The supplier is instructed to strip the swatches first, stripping involves washing twice with a fragrance-free detergent and rinsing three times.
The BI scale contains one clean swatch with no malodor applied. […] These solutions are pipetted to the middle of the swatches. […] After drying for 30 minutes in a vented hood, the swatches are wrapped in aluminum foil to prevent odor contamination to the treated swatch. A clean untreated swatch is also included as the lowest anchor point of reference for malodor strength on the BI scale. The BI reference scale swatches should be used within 0.5 to 12 hours and discarded after 12 hours. The swatches are used as scale anchor points when graders evaluate a test sample(s) and are assigned a Blocker Index (BI) as show in Table 12.
The perfumer/expert grader is asked to rank order swatches according to a scale between 0 and 3.
To evaluate the BI, the test material is applied to a malodorous swatch to determine how well the test material blocks the malodor. […] After drying the malodorous swatch a known concentration of test material solution, between 1 ppm and 100 ppm is pipetted onto the malodorous swatch. […] It is sometimes necessary to evaluate several levels of the test material between about 1 and about 100 ppm to determine the BI.
At least two perfumers/expert graders are used to assign the BI to the test sample. […] The test sample swatch is assigned a BI at or between numbers on the BI in table.

[1] = Conc 10 ppm of test material on isovaleric acid malodorous swatch
[2] = Conc 50 ppm of test material on isovaleric acid malodorous swatch
[3] = test material Conc 10 ppm on isovaleric acid swatch
[4] = test material Conc 50 ppm on isovaleric acid swatch

SMILES | BI [1] | BI [2] | BI [3] | BI [4]
O=C1CCC2CCCCC2O1 (stereo not shown) [3,4,4a,5,6,7,8,8a-octahydrochromen-2-one] | 2.0 | 2.0 | – | –
CC1CCC2(C(C)C)CC(C)OC2C1 (stereo not shown) [4,8-dimethyl-1-(methylethyl)-7-oxybiciclo[4.3.0]nonane] | – | – | 2.0 | 2.2
CC(C)(C)C1CCCCC1 [4-tert-butyl cyclohexane] | 2.0 | 2.0 | – | –
CCC(=O)OC1CC2C3C=CCC3C1C2(C)C (stereo not shown) [8,8-dimethyl-3a,4,5,6,7,7a-hexahydro-1H-4,7-methanoinden-6-yl propionate] | – | – | 1.5 | 2.2
CCCCCCCCCCCCCCCC(=O)OC [Material 109] | 2.0 | – | – | –
CCCCCCCCCCCCO [Material 174] | – | 2.3 | – | –
CC(=O)OCCCCCCC(C)C [Material 204] | 2.0 | 2.7 | – | –
CC1(C)CCc2ccc(CCC=O)cc21 [Material 261, 3-(3,3-dimethyl-2,3-dihydro-1H-inden-5-yl)propanal] | – | – | 1.5 | 2.7
CC1(C)CCc2ccc(CCC=O)cc21 [Material 261] | 1.8 | 1.3 | – | –
CC(=O)OC1CC2CC1C1CC=CC21 (stereo not shown) [Material 281] | 2.0 | 2.0 | – | –
CCCCCCCCCCCC(=O)OCC [Material 391] | – | 2.2 | – | –
C=CC(C)=CCC=C(C)C [Material 524] | – | 2.8 | – | –
CCC(O)COC1CCCCC1C(C)(C)C (stereo not shown) [Material 677] | 2.3 | 2.0 | – | –
CC(CCO)CCc1ccccc1 (stereo not shown) [Material 962] | 2.3 | 1.7 | – | –
CCOC(=O)OC1C(C)CCC(C)C1C (stereo not shown) [Material 1005] | – | 2.6 | – | –
COC(=O)OC1CC/C=C\CCC1 (stereo not shown) [Material 1139] | 2.0 | 2.7 | – | –
C=C1CCC2OC2(C)CCC2C1CC2(C)C (stereo not shown) [Material 1148] | – | 2.3 | – | –
CC1(C)C2CCC3(C2)C1C(=O)CCC3(C)C (stereo not shown) [Material 1149] | 1.5 | 2.3 | – | –
CCCCCCCCCCCO [Undecanol] | – | 2.3 | – | –
